In patent US4243683A, “Tertiary alcohols” (May & Baker Limited, priority 1977, dated 1981):
Where “and” joins values, the source holds several entries; their conditions need not be identical. Identical values can stand only once. Like-named read-outs stand apart in the source and are kept apart here.

Legend:
hamsters = experiment: Antifertility in hamsters (termination of pregnancy, subcutaneous); type: in vivo, hamster; conditions: Mesocricetus auratus, sc
Method: On the 4th day of pregnancy, hamsters were each injected subcutaneously with an aqueous solution of a compound of formula I (prepared by dissolving the compound in a minimum volume of ethanol and diluting to the appropriate volume with 0.9% w/v saline). On the 7th day of pregnancy the hamsters were killed and their uteri were examined.
Alternatively, the hamsters were dosed on 3 consecutive days (the 3rd, 4th and 5th days of pregnancy) and killed on the 12th day of pregnancy.
The dose required for termination of pregnancy in 50% of the hamsters (ED50) was calculated mathematically.

[1] = system: uterine contraction in rats; experiment: Stimulation of uterine contraction in rats compared with PGE1; type: in vivo, rat; conditions: for Activity (compared with PGE1): intravenous, ratio to PGE1
Method: Pregnant anaesthetised rats were treated with the compounds of the invention by the intravenous or intravaginal route and the activity of each compound in stimulating uterine contraction was compared with that of a standard compound, the expensive prostaglandin E1 (PGE1), and expressed as a ratio.

[2] = system: Lucilia sericata prepupae; experiment: Lucilia pupae, topical treatment of prepupae; type: in vivo
Method: Lucilia sericata prepupae (taken from a batch of the insects of which approximately 50% were pupated) in groups of 10 were each treated topically with 1 μl of a solution of a test compound in acetone. Controls were treated with acetone alone. The insects were stored in the dark at 30° C. for 8 days, and then the number of insects which had hatched as normal adult flies, and any other effects, were observed.

female dog = conditions: in vivo, po, 1 mg/kg
Method: (§1) In tests, four female rats and one female dog were each dosed orally with compound A at a rate of 1.0 mg/kg animal body weight. Before administration to the animals the compound was dissolved in a minimum quantity of a 1% w/w solution of Tween 80 emulsifier ("Tween" is a registered Trade Mark) in ethanol, and the resulting solution was diluted with distilled water to a concentration of 0.02% w/w.

female rats = conditions: rat, in vivo, po, 1 mg/kg
Method: as §1

[3] = system: houseflies (Musca domestica L.); experiment: Houseflies, injection in dorsal thorax, mortality and egg hatch; type: in vivo; conditions: for % egg hatch: 48 hours; for % mortality: 24 hours, 1440 min
Method: Adult houseflies (Musca domestica L.) of mixed sex were injected in the dorsal thorax with 1.0 μl of a solution of a test compound in a mixture of acetone and physiological saline (1:1 v/v). Anaesthesia with carbon dioxide was used, and subsequent holding was at 25° C. A source of honey-water was provided. Fly mortality and oviposition were recorded after 24 hours and egg hatching after 48 hours. Similar, control, experiments were carried out using a mixture of acetone and physiological saline alone.

[4] = system: ticks (Ornithodoros moubata Murray); experiment: Ticks, first instar, fed on blood containing test compound; type: in vivo; conditions: 5.0 μg per 0.3 ml blood, 14 days at 30° C.
Method: First instar ticks (Ornithodoros moubata Murray) were allowed to engorge through a stretched artificial membrane (Parafilm M) on blood at 37° C. and containing a test compound added in a suitable solvent at a rate of 5.0 μg per 0.3 ml blood. Mortality and moulting were observed after 14 days holding at 30° C.

[5] = system: mosquito larvae (Aedes aegypti L.); experiment: Mosquito larvae in water containing test compound; type: in vivo; conditions: 25° C.
Method: Mosquito larvae (Aedes aegypti L.), at the late third or early fourth instar stage, were introduced into water containing a small concentration of a test compound, at 25° C. The water also contained 0.4% v/v acetone which had been employed as the vehicle for the introduction of the test compound. The larvae were fed with dried powdered bovine liver after 2 hours. After 24 hours at 25° C. a mortality count was made, and subsequent metamorphosis and emergence as adults were observed after seven days at 25° C., and compared with controls.

[6] = 288 h, dosed 3rd, 4th and 5th days of pregnancy, examined day 12, read-out: ED50 (dose required for termination of pregnancy in 50% of the hamsters)
[7] = Musca domestica, 24 h, 0.5 μg/fly
[8] = test 1, 1.0 μg/prepupa, 8 days at 30° C., control 10
[9] = Musca domestica, 24 h, 0.25 μg/fly
[10] = 168 h, dosed 4th day of pregnancy, examined day 7, read-out: ED50 (dose required for termination of pregnancy in 50% of the hamsters)

| Structure (SMILES) | Activity (compared with PGE1) [1] | % egg hatch ([3]; 0.5 μg/fly) | mortality at 0.5 µg/fly [3, 7] | % mortality [4] | % moulting normally [4] | also measured |
| --- | --- | --- | --- | --- | --- | --- |
| C[C@@H](C/C=C/C(=O)COc1ccccc1)CCCC(C)(C)O [A, (R)-2-hydroxy-2,6-dimethyl-11-phenoxyundec-8-trans-en-10-one] | 3.7 | – | – | – | – | ED50 (hamsters; [6]): ~2 mg/kg; times as active as PGE1 ([1]; pervaginal): over 100 times; Number hatched (out of 10) ([2]; test 3, 1.0 μg/prepupa, control 9): 2 out of 10; weight loss (female dog): no weight loss; weight loss (female rats): no weight loss |
| C[C@@H](C/C=C/C(O)COc1ccccc1)CCCC(C)(C)O (stereo partly drawn) [P, (6R,10RS)-2,6-dimethyl-11-phenoxyundec-8-trans-ene-2,10-diol] | 0.14 | no eggs | 50% | 0% | 0% | Number hatched (out of 10) [2, 8]: 1 out of 10 |
| C[C@@H](C/C=C/C(=O)CCc1ccc(Cl)cc1)CCCC(C)(C)O [L, (R)-12-(4-chlorophenyl)-2-hydroxy-2,6-dimethyldodec-8-trans-en-10-one] | – | no eggs | 80% | 0% | 0% | – |
| C[C@@H](C/C=C/C(=O)COc1ccccc1Cl)CCCC(C)(C)O [B, (R)-11-(2-chlorophenoxy)-2-hydroxy-2,6-dimethylundec-8-trans-en-10-one] | 1.2 | – | – | – | – | – |
| C[C@@H](C/C=C/C(=O)CCc1cccc(Cl)c1)CCCC(C)(C)O [M, (R)-12-(3-chlorophenyl)-2-hydroxy-2,6-dimethyldodec-8-trans-en-10-one] | – | 0% | – | 0% | 0% | % egg hatch ([3]; 0.25 μg/fly): 100%; % mortality ([3]; 0.5 μg/fly): 80% and 40%; mortality at 0.25 µg/fly [3, 9]: 30% |
| CCCCCC(O)/C=C/C[C@H](C)CCCC(C)(C)O (stereo partly drawn) [Q, (6R,10RS)-2,6-dimethylpentadec-8-trans-ene-2,10-diol] | 0.05 | no eggs | 70% | 0% | 0% | ED50 (hamsters; [6]): 2 mg/kg; Number hatched (out of 10) [2, 8]: 0 out of 10; Number hatched (out of 10) ([2]; test 2, 0.2 μg/prepupa, control 7): 6 out of 10; Number hatched (out of 10) ([2]; test 2, 0.4 μg/prepupa, control 7): 5 out of 10; Number hatched (out of 10) ([2]; test 2, 0.6 μg/prepupa, control 7): 1 out of 10; Number hatched (out of 10) ([2]; test 2, 0.8 μg/prepupa, control 7): 0 out of 10; Number hatched (out of 10) ([2]; test 2, 1.0 μg/prepupa, 8 days at 30° C., control 7): 2 out of 10 |
| C[C@@H](C/C=C/C(=O)CCc1ccccc1)CCCC(C)(C)O [G, (R)-2-hydroxy-2,6-dimethyl-12-phenyldodec-8-trans-en-10-one] | 0.67 | no eggs | 60% | 0% | 0% | ED50 (hamsters; [10]): 5 mg/kg; ED50 (hamsters; [6]): 4 mg/kg; % egg hatch ([3]; 0.1 μg/fly): 100%; mortality at 0.1 µg/fly ([3]; Musca domestica, 24 h, 0.1 μg/fly): 60% |
| CCCCCC(=O)/C=C/C[C@H](C)CCCC(C)(C)O [J, (R)-2-hydroxy-2,6-dimethylpentadec-8-trans-en-10-one] | 0.02 | – | – | – | – | – |
| C[C@@H](C/C=C/C(=O)Cc1ccccc1)CCCC(C)(C)O [I, (R)-2-hydroxy-2,6-dimethyl-11-phenylundec-8-trans-en-10-one] | 0.09 | – | – | – | – | – |
| C[C@@H](C/C=C/C(=O)CCCc1ccccc1)CCCC(C)(C)O [F, (R)-2-hydroxy-2,6-dimethyl-13-phenyltridec-8-trans-en-10-one] | 0.91 | – | – | – | – | – |
| C[C@@H](C/C=C/C(=O)CCc1ccccc1Cl)CCCC(C)(C)O [N, (R)-12-(2-chlorophenyl)-2-hydroxy-2,6-dimethyldodec-8-trans-en-10-one] | – | 100% | 50% | 0% | 0% | % egg hatch ([3]; 0.25 μg/fly): 100%; % mortality ([3]; 0.5 μg/fly): 60%; mortality at 0.25 µg/fly [3, 9]: 40% |
| C[C@@H](C/C=C/C(O)CCCc1ccccc1)CCCC(C)(C)O (stereo partly drawn) [S, (6R,10RS)-2,6-dimethyl-13-phenyltridec-8-trans-ene-2,10-diol] | – | – | 30% | 29% | 17% | % egg hatch ([3]; 0.25 μg/fly): 100%; % mortality ([3]; 0.5 μg/fly): 40%; mortality at 0.25 µg/fly [3, 9]: 20% |
| CCCCC(C)(C)C(O)/C=C/C[C@H](C)CCCC(C)(C)O (stereo partly drawn) [Compound T, (6R,10RS)-2,6,11,11-tetramethylpentadec-8-trans-ene-2,10-diol] | – | – | – | – | – | ED50 (hamsters; [10]): 2 mg/kg |
| CCCCC(C)(C)C(=O)/C=C/C[C@H](C)CCCC(C)(C)O [K, (R)-2-hydroxy-2,6,11,11-tetramethylpentadec-8-trans-en-10-one] | 0.57 | – | – | – | – | ED50 (hamsters; [6]): < 0.5 mg/kg |
| C[C@@H](C/C=C/C(O)CCc1ccccc1)CCCC(C)(C)O (stereo partly drawn) [R, (6R,10RS)-2,6-dimethyl-12-phenyldodec-8-trans-ene-2,10-diol] | 0.14 | – | – | 0% | 0% | ED50 (hamsters; [6]): 0.5 mg/kg; % egg hatch ([3]; 0.25 μg/fly): 100%; mortality at 0.25 µg/fly [3, 9]: 40%; larvae killed within 24 hours ([5]; 0.08 parts per million w/v): all; mortality at 0.04 µg/mL ([5]; Aedes aegypti, 24 h, 0.04 parts per million, read-out: larvae killed within 24 hours): ~50% |
| C[C@@H](C/C=C/C(=O)COc1ccc(Cl)cc1)CCCC(C)(C)O [C, (R)-11-(4-chlorophenoxy)-2-hydroxy-2,6-dimethylundec-8-trans-en-10-one] | 0.32 | – | – | – | – | – |
| C[C@@H](C/C=C/C(=O)COc1cccc(Cl)c1)CCCC(C)(C)O [O, (R)-11-(3-chlorophenoxy)-2-hydroxy-2,6-dimethylundec-8-trans-en-10-one] | 0.91 | – | – | – | – | – |
